Data reported in patent publication US12638448B2, “Compositions, methods, and kits for detection of lipolytic activity” (priority 2019, dated 2026).
Where “and” joins values, the source holds several entries; their conditions need not be identical. Identical values can stand only once.

Key:
[1] = cited from earlier work
[2] = 4MuO auto-hydrolysis (no enzyme), 4Mu fluorescence; format: physicochemical
[3] = molecular target: T1, Porcine pancreas lipase (PPL) (Sus scrofa, UniProt P00591); test: 4MuO lipase assay with porcine pancreas lipase (Examples 1A-7); details: for concentration at which product inhibition of lipase activity was observed: 800 nM PPL
T1 sequence (P00591 1-450): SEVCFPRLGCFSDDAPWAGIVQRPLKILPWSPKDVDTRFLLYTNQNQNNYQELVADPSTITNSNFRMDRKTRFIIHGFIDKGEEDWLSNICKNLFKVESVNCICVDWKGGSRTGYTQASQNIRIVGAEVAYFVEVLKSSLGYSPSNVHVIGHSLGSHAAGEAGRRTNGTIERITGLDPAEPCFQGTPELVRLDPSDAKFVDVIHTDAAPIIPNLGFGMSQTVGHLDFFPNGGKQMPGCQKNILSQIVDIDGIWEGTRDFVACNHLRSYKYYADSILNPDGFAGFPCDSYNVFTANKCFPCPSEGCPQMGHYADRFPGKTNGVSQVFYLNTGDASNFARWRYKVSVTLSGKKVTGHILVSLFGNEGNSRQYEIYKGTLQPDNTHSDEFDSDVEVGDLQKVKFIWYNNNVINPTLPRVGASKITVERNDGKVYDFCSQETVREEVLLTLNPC

[4] = molecular target: T2, porcine pancreatic lipase (PPL) (Sus scrofa, UniProt P00591); test: 4MuO lipase assay with HCMB, sample containing PPL (Examples 1B-6B, 10); format: biochemical
T2 construct: purchased Sigma; host or cells: porcine pancreas
T2 sequence (P00591 1-450): T1 sequence (P00591 1-450)

LipC12 lipase = details: as solvent; cited from earlier work
[5] = system: cell culture harvest fluid (CCHF) containing a mixture of lipases; format: biochemical, CHO cell line; details: negative controls, 30 min pre-incubation, 10 mg/mL mAb1, 0.02% PS80, 0.5% CCHF
[6] = as organic solvent of the assay
[7] = 10.4 mM TRIS pH 8.1, 500 nM PPL, 22 hours

SMILES: Cc1cc(=O)oc2cc(O)ccc12 [4Mu, 4-methylumbelliferone]
- pKa [1]: approximately 7.7

SMILES: CCCCCCCC/C=C\CCCCCCCC(=O)Oc1ccc2c(C)cc(=O)oc2c1 [4MuO, 4-methylumbelliferyl oleate, reference compound]
- factor by which autohydrolysis (AH) decreased ([2]; lowering the pH from 8 to 6 (TRIS / BIS-TRIS)): ~5

SMILES: OCCN(CCO)C(CO)(CO)CO [BIS-TRIS]
- Auto-Hydrolysis (AH) ([2]; pH 6): 0.16 µM and 0.13 µM and 0.11 µM

SMILES: [Ca+2].[Cl-].[Cl-] [CaCl2, calcium chloride]
- Enzymatic Hydrolysis (EH − AH) ([3]; 0.104 mM CaCl2, 500 nM PPL): 0.66 µM
- Total Hydrolysis (AH + EH) ([3]; 0.104 mM CaCl2, 500 nM PPL): 0.81 µM
- Enzymatic Hydrolysis (EH − AH) ([3]; 1.04 mM CaCl2, 500 nM PPL): 0.73 µM
- Total Hydrolysis (AH + EH) ([3]; 1.04 mM CaCl2, 500 nM PPL): 0.90 µM
- Enzymatic Hydrolysis (EH − AH) ([3]; 10.4 mM CaCl2, 500 nM PPL): 0.69 µM
- Total Hydrolysis (AH + EH) ([3]; 10.4 mM CaCl2, 500 nM PPL): 0.85 µM
- Auto-Hydrolysis (AH) ([2]; 0.104 mM CaCl2): 0.15 µM
- Auto-Hydrolysis (AH) ([2]; 1.04 mM CaCl2): 0.16 µM
- Auto-Hydrolysis (AH) ([2]; 10.4 mM CaCl2): 0.16 µM
- PPL activity (in words) ([4]; highest concentration tested (52 mM CaCl2 in HCMB)): slightly decreased

SMILES: C[S+](C)[O-] [DMSO, dimethyl sulfoxide]
- Auto-Hydrolysis (AH) [2, 6]: 0.14 µM

SMILES: CC(C)O [IPA, isopropanol]
- Auto-Hydrolysis (AH) [2, 6]: 0.09 µM

SMILES: CCCCCCCCCCCC(=O)O [Lauric Acid, lauric acid, reference compound]
- concentration at which product inhibition of lipase activity was observed [3]: above 8.5 μM
- Auto-Hydrolysis (AH) ([2]; 8.5 μM Lauric Acid (0.001% PS20 theoretically fully degraded)): 0.15 µM
- Auto-Hydrolysis (AH) ([2]; 850 μM Lauric Acid (0.1% PS20 theoretically fully degraded)): 0.08 µM

SMILES: CO [MeOH, methanol]
- factor of increase of LipC12 lipase activity (LipC12 lipase): > 10
- Auto-Hydrolysis (AH) [2, 6]: 0.13 µM

SMILES: [Cl-].[Na+] [NaCl, sodium chloride]
- Enzymatic Hydrolysis (EH − AH) ([3]; 40 mM NaCl, 500 nM PPL): 0.57 µM
- Total Hydrolysis (AH + EH) ([3]; 40 mM NaCl, 500 nM PPL): 0.82 µM
- Enzymatic Hydrolysis (EH − AH) ([3]; 120 mM NaCl, 500 nM PPL): 0.62 µM
- Total Hydrolysis (AH + EH) ([3]; 120 mM NaCl, 500 nM PPL): 0.91 µM
- Enzymatic Hydrolysis (EH − AH) ([3]; 360 mM NaCl, 500 nM PPL): 0.59 µM
- Total Hydrolysis (AH + EH) ([3]; 360 mM NaCl, 500 nM PPL): 0.86 µM
- Auto-Hydrolysis (AH) ([2]; 40 mM NaCl): 0.25 µM
- Auto-Hydrolysis (AH) ([2]; 120 mM NaCl): 0.29 µM
- Auto-Hydrolysis (AH) ([2]; 360 mM NaCl): 0.28 µM
- PPL activity (in words) ([4]; highest concentration tested (1800 mM NaCl in HCMB)): slightly decreased

SMILES: CCCCCCCC/C=C\CCCCCCCC(=O)O [Oleic Acid, oleic acid, reference compound]
- concentration at which product inhibition of lipase activity was observed [3]: 780 µM
- Auto-Hydrolysis (AH) ([2]; 7.8 μM Oleic Acid (0.001% PS80 theoretically fully degraded)): 0.11 µM
- Auto-Hydrolysis (AH) ([2]; 780 μM Oleic Acid (0.1% PS80 theoretically fully degraded)): 0.06 µM

SMILES: NC(CO)(CO)CO [TRIS]
- Enzymatic Hydrolysis (EH − AH) [3, 7]: 1.29 µM
- Total Hydrolysis (AH + EH) [3, 7]: 1.51 µM
- Auto-Hydrolysis (AH) ([2]; 10.4 mM TRIS pH 8.1, 22 hours): 0.22 µM

SMILES: CCCCCCCCCCC[C@@H](C[C@@H]1OC(=O)[C@H]1CCCCCC)OC(=O)[C@H](CC(C)C)NC=O [orlistat, (S)-2-formylamino-4-methyl-pentanoic acid (S)-1-[[(2S,3S)-3-hexyl-4-oxo-2-oxetanyl]methyl]-dodecyl ester, reference compound]
- lipolytic activity (in words) ([3]; pre-treatment (30 minutes) at 25 μM, 500 nM PPL): completely abolished
- CCHF lipase activity in protein-containing formulation (in words) [5]: inhibited
- inhibition at 25 µM ([4]; 25 μM, 30 min pre-incubation, 0.0335 mg/mL PPL, read-out: reduction of enzyme activity in pre-treated sample compared to co-addition of substrate and inhibitor): ~50%
- PPL activity in protein-containing formulation (in words) ([4]; negative controls, 30 min pre-incubation, 10 mg/mL mAb1, 0.02% PS80, 0.025 mg/mL PPL): inhibited
